Measurements as given in ChEMBL document CHEMBL1201862, “PubChem BioAssay data set” (2004).
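In this assay, cells in 96-well plates receive the compound at five concentrations for 48 hours. Endpoints are linearly interpolated between the surrounding concentrations. GI50 = concentration required for 50% inhibition of growth.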 Activity calls are given as the source filed them. No stated cut-off is given here; in the data, active = GI50 up to about 1.1 µM and inactive = higher. Residues, ends and D or L forms follow the SMILES beside them. *: point of attachment. Boc = CC(C)(C)OC(=O)*; OBn = c1ccc(CO*)cc1

How the values were obtained:
Assay in all cases: NCI-60 cell line screen, 48 h
SF-295 = tested on: SF-295
MDA-MB-435 = tested on: MDA-MB-435
NCI-H226 = tested on: NCI-H226
HL-60 = tested on: HL-60
PC-3 = tested on: PC-3
RXF 393 = tested on: RXF 393
U-251 = tested on: U-251
SR = tested on: SR
SF-539 = tested on: SF-539
SK-MEL-2 = tested on: SK-MEL-2
SW-620 = tested on: SW-620
UACC-257 = tested on: UACC-257
DU-145 = tested on: DU-145
HCT-116 = tested on: HCT-116
MDA-N = tested on: MDA-N
COLO 205 = tested on: COLO 205
OVCAR-8 = tested on: OVCAR-8
HOP-62 = tested on: HOP-62

Structure (SMILES)	GI50 (SF-295)	GI50 (MDA-MB-435)	GI50 (NCI-H226)	GI50 (HL-60)	GI50 (PC-3)	GI50 (RXF 393)	GI50 (U-251)	GI50 (SR)	GI50 (SF-539)	GI50 (SK-MEL-2)	GI50 (SW-620)	GI50 (UACC-257)	GI50 (DU-145)	GI50 (HCT-116)	GI50 (MDA-N)	GI50 (COLO 205)	GI50 (OVCAR-8)	GI50 (HOP-62)
N/N=C1\CCCc2c1no[n+]2[O-]	> 100 µM (inactive)	> 100 µM (inactive)	> 100 µM (inactive)	> 100 µM (inactive)	> 100 µM (inactive)	> 100 µM (inactive)	> 100 µM (inactive)	> 100 µM (inactive)	> 100 µM (inactive)	> 100 µM (inactive)	> 100 µM (inactive)	> 100 µM (inactive)	> 100 µM (inactive)	> 100 µM (inactive)	> 100 µM (inactive)	> 100 µM (inactive)	> 100 µM (inactive)	> 100 µM (inactive)
COc1ccc(/N=N/C(=N/NC(=O)c2ccccc2)c2ccc(N(CCC#N)CCC#N)cc2C)cc1	21.5 µM (inactive)	5.43 µM (inactive)	43.8 µM (inactive)	32.6 µM (inactive)	19.1 µM (inactive)	34.8 µM (inactive)	60.5 µM (inactive)	6.19 µM (inactive)	19.3 µM (inactive)	88.5 µM (inactive)		78.7 µM (inactive)	81.3 µM (inactive)	29.9 µM (inactive)	4.7 µM (inactive)	32.8 µM (inactive)	51.8 µM (inactive)	51.6 µM (inactive)
CSCC[C@H](NC(=O)[C@H](CC(C)C)NC(=O)[C@@H](Cc1ccccc1)NC(=O)CNC(=O)[C@@H](NC(=O)[C@H](C)NC(=O)[C@H](Cc1c[nH]c2ccccc12)NC(=O)[C@H](CCC(N)=O)NC(=O)[C@H](N)CC(N)=O)C(C)C)C(N)=O	> 12.5 µM (inactive)	> 12.5 µM (inactive)	> 12.5 µM (inactive)	> 12.5 µM (inactive)	> 12.5 µM (inactive)	> 12.5 µM (inactive)	> 12.5 µM (inactive)	0.0269 µM (active)	> 12.5 µM (inactive)		> 12.5 µM (inactive)	> 12.5 µM (inactive)	> 12.5 µM (inactive)	> 12.5 µM (inactive)	> 12.5 µM (inactive)	> 12.5 µM (inactive)	> 12.5 µM (inactive)	> 12.5 µM (inactive)
Cn1cccc1-c1ccc(-c2ccc(CO)[se]2)[se]1	10.7 µM (inactive)	4.91 µM (inactive)	0.307 µM (active)	7.35 µM (inactive)	24.5 µM (inactive)	5.66 µM (inactive)	9.53 µM (inactive)	17.1 µM (inactive)	11.5 µM (inactive)	28.8 µM (inactive)	2.15 µM (inactive)		17.5 µM (inactive)	6.34 µM (inactive)	8.53 µM (inactive)	11.4 µM (inactive)	27.7 µM (inactive)	21.6 µM (inactive)
CC(=O)OCC1OC(n2c(C)c(/N=N/c3ccc(C)cc3)c(C)c(C#N)c2=S)C(OC(C)=O)C(OC(C)=O)C1OC(C)=O (stereo not drawn)	90.6 µM (inactive)	> 100 µM (inactive)		> 100 µM (inactive)	> 100 µM (inactive)	> 100 µM (inactive)	> 100 µM (inactive)	> 100 µM (inactive)	39.3 µM (inactive)		> 100 µM (inactive)	> 100 µM (inactive)	> 100 µM (inactive)	> 100 µM (inactive)	> 100 µM (inactive)	> 100 µM (inactive)		> 100 µM (inactive)
C=C1C2C[C@@H]3O[C@H]4C[C@H]5O[C@@]6(C[C@@H]7O[C@]8(C[C@H](C)[C@@H]9O[C@@H]%10CC(CO)O[C@@H]%10C[C@@H]9O8)C[C@H](C)[C@@H]7O6)C[C@H]5O[C@H]4[C@H](C)[C@H]3OC(=O)C[C@H]3CC[C@@H]4OC5[C@H]6O[C@]7(CC[C@H]8CC(=C)[C@H](CC[C@@H](C[C@H]1C)O2)O8)CC6O[C@@H]5[C@@H](O7)[C@H]4O3 (stereo partly drawn)	< 0.0001 µM (active)	< 0.0001 µM (active)	< 0.0001 µM (active)		< 0.0001 µM (active)	< 0.0001 µM (active)	< 0.0001 µM (active)	< 0.0001 µM (active)		< 0.0001 µM (active)	< 0.0001 µM (active)	< 0.0001 µM (active)	< 0.0001 µM (active)	< 0.0001 µM (active)	< 0.0001 µM (active)	< 0.0001 µM (active)	< 0.0001 µM (active)	< 0.0001 µM (active)
CC(NC(=O)CNC(=O)OC(C)(C)C)C(=O)NC(Cc1ccccc1)C(=O)OCc1ccccc1 (stereo not drawn) (Boc-Gly-Ala-Phe-OBn; configuration not given here)	> 100 µM (inactive)	> 100 µM (inactive)	75.7 µM (inactive)	36.3 µM (inactive)	> 100 µM (inactive)	> 100 µM (inactive)	> 100 µM (inactive)	23.8 µM (inactive)	> 100 µM (inactive)	> 100 µM (inactive)	> 100 µM (inactive)	> 100 µM (inactive)	> 100 µM (inactive)	14.9 µM (inactive)	> 100 µM (inactive)	> 100 µM (inactive)	> 100 µM (inactive)	
CC[C@@]1(O)C(=O)OCc2c1cc1n(c2=O)Cc2c-1nc1ccc(O)cc1c2[Si](C)(C)C(C)(C)C [AR-67]		< 0.01 µM (active)	< 0.01 µM (active)	< 0.01 µM (active)	< 0.0208 µM (active)	< 0.01 µM (active)	< 0.01 µM (active)	< 0.01 µM (active)	< 0.01 µM (active)	0.125 µM (active)	< 0.01 µM (active)	< 0.0149 µM (active)	< 0.01 µM (active)	< 0.01 µM (active)	< 0.0132 µM (active)	0.031 µM (active)	< 0.0123 µM (active)	
